# Results from patent publication US20250108032A1, “METHODS OF TREATING TYPE 1 DIABETES AND KIDNEY DISEASE” (LEXICON PHARMACEUTICALS, INC., priority 2023, published 2025).
# Legend:
# [1] = tested on: adult patients with type 1 diabetes mellitus (overall and CKD cohorts); experiment: Pooled inTandem1 and inTandem2 double-blind clinical studies, sotagliflozin adjunct to optimized insulin; assay type: in vivo, human; details: for No Weight Gain at Week 52, HbA1c <7.0%: Absolute difference in % / No Weight Gain at Week 52, reduction in HbA1c ≥0.5%: Absolute difference in % / No Weight Gain at Week 52: % with absolute reduction in HbA1c ≥0.5% / No Weight Gain at Week 52: Percentage HbA1c <7.0% / Weight, LS Mean (SE) kg: Percent Change (%) from Baseline at Week 24 / Weight, LS Mean (SE) kg: Percent Change (%) from Baseline at Week 52 / Weight, LS Mean (SE): Treatment Comparison vs. PBO, Week 24 / Weight, LS Mean (SE): Treatment Comparison vs. PBO, Week 52 / Any TEAE, n (%) / Diarrhea, n (%) / Genital mycotic infection, n (%) / HbA1c change from Baseline, Week 52 Treatment Comparison LS Mean (SE), %: overall cohort; for HbA1c change from Baseline, Week 24 Treatment Comparison LS Mean (SE), % / HbA1c change from Baseline, Week 52 Treatment Comparison LS Mean (SE), %: vs placebo
# Procedure: The efficacy of sotagliflozin as adjunct therapy in adult patients with type 1 diabetes mellitus who have inadequate glycemic control with insulin therapy was evaluated in two multicenter, double-blind clinical studies named “in Tandem1” and “in Tandem2”. Patients were randomized into three treatment groups: those treated with sotagliflozin 200 mg/day, those treated with sotagliflozin 400 mg/day; and those treated with placebo.
# Details of the in Tandem1 study have been reported. See, e.g., Buse, J. B., et al., “Sotagliflozin in Combination With Optimized Insulin Therapy in Adults With Type 1 Diabetes: The North American in Tandem1 Study” Diabetes Care 2018; 41: 1970-1980. Details of the in Tandem2 study have also been reported. See, e.g., Danne. T., et al., “HbA and Hypoglycemia 1c Reductions at 24 and 52 Weeks With Sotagliflozin in Combination With Insulin in Adults With Type 1 Diabetes: The European in Tandem2 Study” Diabetes Care 2018; 41: 1981-1990. Both studies included men and nonpregnant women aged≥18 years with T1D using either multiple daily injections (MDI) or subcutaneous insulin infusion (SCII) for insulin delivery and whose HbA1C was 7.0-11.0% at screening. Patients with β-hydroxybutyrate (BHB) levels>0.6 mmol/L at screening were excluded.
# In both studies, insulin therapy was optimized for six weeks prior to randomization, and optimized insulin continued until the study conclusion at week 52. After a two-week placebo run-in, patients were randomly assigned to double-blind treatment with sotagliflozin 200 or 400 mg or placebo for 52 weeks. Insulin optimization, which refers to the adjustment of insulin to meet standard-of-care glycemic targets, starting six weeks prior to randomization and continued for the entire study. An independent insulin dose monitoring committee (IDMC) assessed standard-of-care adherence and provided feedback to the principal investigator if deviations from standard of care were observed prior to week 24. HbA1c was masked to study staff during this period. Between week 24 and 52, insulin optimization continued without input from the IDMC, and HbA1c values were unmasked. Safety was monitored for 30 days after the last dose of study medication.
# The primary endpoint of both studies was the change from baseline to week 24 in glycated hemoglobin A1C of either dose of sotagliflozin (400 mg or 200 mg) treatment group compared to placebo. Other endpoints included the change from baseline of sotagliflozin versus placebo in: the proportion of patients with A1C<7.0% and no episode of severe hypoglycemia and no episode of DKA; body weight, bolus insulin dose, fasting plasma glucose (FPG), diabetes treatment satisfaction questionnaire status (DTSQs) score; and Diabetes Distress Screening Scale (DDS2) questionnaire score.
# Efficacy analyses were based on the mITT (modified Intent-to-Treat) population. Primary efficacy analyses were conducted based on data collected during the Core Treatment Period (Baseline through and including the week 24 visit assessments). As shown below in Table 2, sotagliflozin achieved its primary endpoint by leading to statistically significant lower A1C levels for both doses when compared to placebo in the pooled in Tandem1/in Tandem2 study results after the core treatment and long-term extension periods.
# [2] = tested on: patients with type 1 diabetes receiving insulin therapy (overall and CKD cohorts); experiment: inTandem3 phase 3, double-blind trial, sotagliflozin 400 mg per day vs placebo for 24 weeks; assay type: in vivo, human; details: for placebo-adjusted systolic blood pressure, least-squared mean change: after 16 weeks; for DKA, HR (95% CI) / Severe hypoglycemia, HR (95% CI): 400 mg/day vs placebo
# Procedure: The in Tandem3 study was a phase 3, double-blind trial conducted at 133 centers worldwide. In the study, 1402 patients with type 1 diabetes who were receiving treatment with insulin therapy (pump or injections) were randomly assigned to receive sotagliflozin (400 mg per day) or placebo for 24 weeks. The primary end point was a glycated hemoglobin level lower than 7.0% at week 24 with no episodes of severe hypoglycemia or diabetic ketoacidosis after randomization. Secondary end points included the change from baseline in glycated hemoglobin level, weight, systolic blood pressure, and mean daily bolus dose of insulin. Specific details of the study were reported in Garg, S. K., et al., “Effects of Sotagliflozin Added to Insulin in Patients with Type 1 Diabetes” N. Engl. J. Med. 2017:377:2337-48.
# The rate of severe hypoglycemia was similar in the sotagliflozin group and the placebo group (3.0% [21 patients] and 2.4% [17 patients], respectively). […] The rate of DKA was higher in the sotagliflozin group than in the placebo group (3.0% [21 patients] and 0.6%, respectively). Id. at 2337.
# For this invention, data from CKD patients were compared to those of the overall cohort. As shown below, 16% of patients had CKD at baseline: […]
# [3] = 200 mg/day vs placebo, CKD Cohort, 52 weeks
# [4] = 200 mg/day vs placebo, Overall Cohort, 52 weeks
# [5] = 200 mg/day, CKD Cohort N = 85, 52 weeks
# [6] = 200 mg/day, overall cohort N = 524, positively adjudicated, through 52 Weeks
# [7] = 400 mg/day vs placebo, CKD Cohort, 52 weeks
# [8] = 400 mg/day vs placebo, Overall Cohort, 52 weeks
# [9] = 400 mg/day, CKD Cohort N = 76, 52 weeks
# [10] = 400 mg/day, overall cohort N = 525, positively adjudicated, through 52 Weeks
# [11] = 400 mg per day, overall population
# [12] = 400 mg/day, CKD Cohort N = 115, 24 weeks
compound,measurement,setting,value
"CCOc1ccc(Cc2cc([C@@H]3O[C@H](SC)[C@@H](O)[C@H](O)[C@H]3O)ccc2Cl)cc1 [sotagliflozin, (2S,3R,4R,5S,6R)-2-(4-chloro-3-(4-ethoxybenzyl)phenyl)-6-(methylthio)tetrahydro-2H-pyran-3,4,5-triol]","No Weight Gain at Week 52, HbA1c <7.0%: Absolute difference in %",[1]; 200 mg/day vs PBO,12.6%
same,"No Weight Gain at Week 52, reduction in HbA1c ≥0.5%: Absolute difference in %",[1]; 200 mg/day vs PBO,14.9%
same,"DKA, HR (95% CI)",[1]; [3],"3.2 (0.4, 29.0)"
same,"Severe hypoglycemia, HR (95% CI)",[1]; [3],"0.34 (0.13, 0.91)"
same,"DKA, HR (95% CI)",[1]; [4],"15.0 (2.0, 113.3)"
same,"Severe hypoglycemia, HR (95% CI)",[1]; [4],"0.76 (0.47, 1.22)"
same,"DKA, n (%)",[1]; [5],4 (4.7) n (%)
same,"Severe hypoglycemia, n (%)",[1]; [5],6 (7.1) n (%)
same,No Weight Gain at Week 52: % with absolute reduction in HbA1c ≥0.5%,[1]; 200 mg/day,23.7%
same,No Weight Gain at Week 52: Percentage HbA1c <7.0%,[1]; 200 mg/day,21.8%
same,"Weight, LS Mean (SE) kg: Percent Change (%) from Baseline at Week 24",[1]; 200 mg/day,−1.70 (0.137) %
same,"Weight, LS Mean (SE) kg: Percent Change (%) from Baseline at Week 52",[1]; 200 mg/day,−2.31 (0.208) %
same,"Weight, LS Mean (SE): Treatment Comparison vs. PBO, Week 24",[1]; 200 mg/day,−2.17 (0.188) %
same,"Weight, LS Mean (SE): Treatment Comparison vs. PBO, Week 52",[1]; 200 mg/day,−3.21 (0.291) %
same,"DKA, n (%)",[1]; [6],15 (2.9) n (%)
same,"Severe hypoglycemia, n (%)",[1]; [6],30 (5.7) n (%)
same,"HbA1c change from Baseline, Week 24 Treatment Comparison LS Mean (SE), %","[1]; 200 mg/day, overall cohort n = 524",−0.36%
same,"Any TEAE, n (%)","[1]; 200 mg/day, through 52 Weeks",393 (75.0) n (%)
same,"Diarrhea, n (%)","[1]; 200 mg/day, through 52 Weeks",34 (6.5) n (%)
same,"Genital mycotic infection, n (%)","[1]; 200 mg/day, through 52 Weeks",48 (9.2) n (%)
same,"HbA1c change from Baseline, Week 52 Treatment Comparison LS Mean (SE), %",[1]; 200 mg/day,−0.23%
same,"No Weight Gain at Week 52, HbA1c <7.0%: Absolute difference in %",[1]; 400 mg/day vs PBO,17.0%
same,"No Weight Gain at Week 52, reduction in HbA1c ≥0.5%: Absolute difference in %",[1]; 400 mg/day vs PBO,20.0%
same,"DKA, HR (95% CI)",[1]; [7],"1.9 (0.2, 20.8)"
same,"Severe hypoglycemia, HR (95% CI)",[1]; [7],"0.2 (0.06, 0.70)"
same,"DKA, HR (95% CI)",[1]; [8],"20.3 (2.7, 151.2)"
same,"Severe hypoglycemia, HR (95% CI)",[1]; [8],"0.58 (0.35, 0.97)"
same,"DKA, n (%)",[1]; [9],2 (2.6) n (%)
same,"Severe hypoglycemia, n (%)",[1]; [9],3 (3.9) n (%)
same,No Weight Gain at Week 52: % with absolute reduction in HbA1c ≥0.5%,[1]; 400 mg/day,28.8%
same,No Weight Gain at Week 52: Percentage HbA1c <7.0%,[1]; 400 mg/day,26.1%
same,"Weight, LS Mean (SE) kg: Percent Change (%) from Baseline at Week 24",[1]; 400 mg/day,−2.55 (0.137) %
same,"Weight, LS Mean (SE) kg: Percent Change (%) from Baseline at Week 52",[1]; 400 mg/day,−3.33 (0.209) %
same,"Weight, LS Mean (SE): Treatment Comparison vs. PBO, Week 24",[1]; 400 mg/day,−3.02 (0.188) %
same,"Weight, LS Mean (SE): Treatment Comparison vs. PBO, Week 52",[1]; 400 mg/day,−4.24 (0.291) %
same,"DKA, n (%)",[1]; [10],20 (3.8) n (%)
same,"Severe hypoglycemia, n (%)",[1]; [10],23 (4.4) n (%)
same,"HbA1c change from Baseline, Week 24 Treatment Comparison LS Mean (SE), %","[1]; 400 mg/day, overall cohort n = 525",−0.38%
same,"Any TEAE, n (%)","[1]; 400 mg/day, through 52 Weeks",390 (74.3) n (%)
same,"Diarrhea, n (%)","[1]; 400 mg/day, through 52 Weeks",46 (8.8) n (%)
same,"Genital mycotic infection, n (%)","[1]; 400 mg/day, through 52 Weeks",63 (12.0) n (%)
same,"HbA1c change from Baseline, Week 52 Treatment Comparison LS Mean (SE), %",[1]; 400 mg/day,−0.32%
same,"efficacy (A1C, body weight, DTSQ change from baseline) by BMI subgroup","[1]; patients with BMI≥27 kg/m^2 compared to the lower BMI subgroup, Week 24",systematically better
same,relative risk of severe hypoglycemia,[1]; sotagliflozin compared to placebo in the CKD cohort,lower
same,relative risk of DKA,[1]; sotagliflozin relative to placebo in the CKD cohort,not significantly higher
same,A1C and BW in the CKD subgroup,[1]; to a similar extent as the overall cohort,significantly reduced
same,"placebo-adjusted systolic blood pressure, least-squared mean change","[2]; 400 mg per day, CKD group, SE=1.81",−7.1 mm Hg
same,"placebo-adjusted change in HbA1C, least-squared mean","[2]; 400 mg per day, CKD group, after 24 weeks, SE=0.120",−0.46%
same,"placebo-adjusted change in body weight, least-squared mean","[2]; 400 mg per day, CKD group, after 24 weeks, SE=0.464",-2.82 kg
same,number of patients achieving the primary end point,"[2]; 400 mg per day, of 699 patients",200 patients
same,"mean daily bolus dose of insulin, least-squares mean change from baseline, difference vs placebo",[2]; [11],−2.8 units per day
same,proportion of patients achieving the primary end point (glycated hemoglobin lower than 7.0% at week 24 with no severe hypoglycemia or DKA),[2]; [11],28.6%
same,"systolic blood pressure, least-squares mean change from baseline, difference vs placebo",[2]; [11],−3.5 mm Hg
same,"glycated hemoglobin, least-squares mean change from baseline, difference vs placebo","[2]; 400 mg per day, overall population, 24 weeks",−0.46 percentage points
same,"placebo-adjusted systolic blood pressure, least-squared mean change","[2]; 400 mg per day, total, overall population, SE=0.57",−3.8 mm Hg
same,"placebo-adjusted change in body weight, least-squares mean","[2]; 400 mg per day, total, overall population, after 24 weeks",-2.98 kg
same,"placebo-adjusted change in HbA1C, least-squared mean","[2]; 400 mg per day, total, overall population, after 24 weeks, SE=0.042",−0.46%
same,"DKA, HR (95% CI)","[2]; CKD Cohort, 24 weeks",3.5
same,"Severe hypoglycemia, HR (95% CI)","[2]; CKD Cohort, 24 weeks",1.7
same,"DKA, HR (95% CI)","[2]; Overall Cohort, 24 weeks",5.5
same,"Severe hypoglycemia, HR (95% CI)","[2]; Overall Cohort, 24 weeks",1.3
same,"DKA, %",[2]; [12],(2.6) %
same,"Severe hypoglycemia, %",[2]; [12],(7.0) %
same,rate of documented hypoglycemia with a blood glucose level of 55 mg per deciliter (3.1 mmol per liter) or below,[2]; sotagliflozin group vs placebo group,significantly lower
